Where no end group is shown, it is not given here.
Experiments:
[1] = system: HCT116, RKO, and H460a cells; assay: Real-time RT-qPCR of p21 and p53 genes in cancer cells with wild-type p53; format: cell-based; conditions: H203 for 8 h
Method: […]. […] […]. Total RNAs were extracted using a Trizol protocol with RNeasy® Mini kit from Qiagen (TX, USA). The concentration of RNAs was measured with Nanodrop-2000c. Real-time qPCR was performed with a BaldStar TaqMan One-Step RT-qPCR Kit from Biorab (Beijing, China) on a BioRad CFX96 qPCR instrument (CA, USA). The primers and probes for qPCR were designed using Primer Express 3.0 software (Applied Biosystems, USA). […]. TaqMan probes were labeled with 5′-FAM and 3′-TAMRA. All primers and probes were synthesized by GenScript (Nanjing, China). Samples were analyzed in triplicate and normalized to the control.

N-MdmX = biological target: T1, N-MdmX (Homo sapiens, UniProt O15151); assay: Isothermal titration calorimetry (ITC) assay
T1 sequence (O15151 22-110): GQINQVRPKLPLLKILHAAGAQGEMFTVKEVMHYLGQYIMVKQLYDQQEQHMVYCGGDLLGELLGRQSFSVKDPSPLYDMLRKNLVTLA
Method: The protein−ligand interactions were characterized using a model ITC-200 isothermal titration microcalorimeter (Malvern, USA) at 25 °C. A typical experiment included the injection of 19 aliquots (2.0 μL each) containing an ~0.2 mM ligand solution into an ~10–20 μM protein solution in the ITC cell (volume of ∼200 μL). Titrations were performed with a stirring speed of 750 rpm and a spacing time of 120 s. A control experiment was run by injecting a ligand solution into buffer instead of a protein solution in the cell. Before data analysis, the control values were subtracted from the experimental data. The binding isotherms were integrated to give the enthalpy change (ΔH) plotted as a function of the molar ratio of the ligand. When necessary, prior to the integration procedures, the baseline was manually adjusted to minimize the background noise. The Origin 7.0-based software was used for data analysis with the one-set-of-binding-sites model. The disassociation constant of Kd was determined from the slope of the central linear part of the fractional saturation curve. The Gibbs free energy change (ΔG) and the entropy change (ΔS) were calculated on the basis of the following equations: ΔG =−RT ln Kd = ΔH − TΔS, where ΔH was derived from the original ΔH/molar ratio plots.

Row | Compound | transcription of the p53 gene [1] | transcription of p21 ([1]; all three cell lines) | Kd (N-MdmX) [µM]
1 | O=C1CN(C(=O)N2C(c3ccc4c(c3)N(c3ccccc3)C(=O)CNC4=O)=N[C@@H](c3ccc(Cl)cc3)[C@H]2c2ccc(Cl)cc2)CCN1 [H203] | unaffected | increased in a dose-dependent manner | –
2 | WKLLPEN [p53p^ΔF19] | – | – | 20.1 ± 3.25

— paper PMC8885691, “Leveraging the multivalent p53 peptide-MdmX interaction to guide the improvement of small molecule inhibitors” (Nature Communications, 2022)
